Data on one compound can be found in US20140045860A1, “SMALL MOLECULE INHIBITORS FOR TREATING PARASITIC INFECTIONS” (NEW YORK UNIVERSITY, priority 2011, published 2014).

Structures are written as SMILES. Values joined by “and” are separate entries in the source; they are usually repeats but may differ in a detail not shown here. Identical values can stand only once. Like-named read-outs stand apart in the source and are kept apart here.

Common to all, as to format: cell-based
Data set [1] is described as follows: In vitro counter screen, cytotoxicity L6. To be noted: murine.
Another data set relates to T. b. rhod. In words: In vitro counter screen, T. b. rhod. The method, then:
(§1) In vitro counter screens were performed to confirm our findings.
On the technique in general: A counterscreen serves to expose hits that act by an unwanted route or on another target.

For a further data set, the system named is T. cruzi. In words: In vitro counter screen, T. cruzi. The note with it: Trypanosoma cruzi. On the procedure: A high-throughput screen of small molecules was performed in duplicate in the recombinant Tulahuen strain of T. cruzi stably expressing a beta-galactosidase reporter gene. Trypomastogote-stage parasites were co-cultured with mouse fibroblast NIH/3T3 host cells, (Buckner F S, Verlinde C L, La Flamme A C, Van Voorhis W C. Efficient technique for screening drugs for activity against Trypanosoma cruzi using parasites expressing beta-galactosidase. Antimicrob Agents Chemother. 1996; 40(11): 2592-2597). Signal was normalized to neutral (DMSO) controls, and a 75% inhibition cutoff was used to define a hit. Compounds initially designated as hits were retested in dose in the primary assay to confirm their inhibitory activity. In parallel, compounds were tested in toxicity assays against NIH/3T3 host cells to determine if these compounds were cytotoxic to mammalian cells and thus, false positives. Compounds that reduced the viability of NIH/3T3 cells were excluded as viable hits. A subset of hits were then tested in a similar infection assay with the Tulahuen strain of T. cruzi infecting murine L-6 cells and the intracellular T. cruzi immunofluorescence assay described below.
as §1

In a further data set the test system is L. don. axen. Kind of data set: In vitro counter screen, L. don. axen. The method, then: as §1
For a further data set, the system named is P. falc. K1. Kind of data set: In vitro counter screen, P. falc. K1. On the procedure: as §1

In the case of `C[C@H]1CN([C@@H](C)CO)C(=O)c2cccc(NC(=O)c3ccncc3)c2O[C@H]1CN(C)Cc1ccc(-c2ccccc2)cc1` [Compound 20], the IC50 in data set [1] is 30.2 µM and 17.5 µg/mL; with T. b. rhod. (read-out: T. b. rhod. (IC50, ug/mL)) it was 6.41 µg/mL; with T. b. rhod. (same result as ug/mL, in uM, read-out: T. b. rhod (IC50 uM)), 11.1 µM; in the data set with T. cruzi (read-out: T. cruzi (IC50 uM)), 0.394 µM; with T. cruzi (read-out: T. cruzi IC50 (ug/mL)), 0.228 µg/mL; with L. don. axen. (read-out: L. don. axen. IC50), 6.47 µg/mL. Moreover, the IC50 in the data set with L. don. axen. (same result as ug/mL, in uM, read-out: L. don. Axen (IC50 uM)) was determined as 11.2 µM; in the data set on P. falc. K1 (read-out: P. falc. K1 IC50), 1.14 µg/mL; in the data set on P. falc. K1 (same result as ug/mL, in uM, read-out: P. falc. K1 (IC50 uM)) it was 1.97 µM.
